Measurements taken from ChEMBL document CHEMBL5053548, “Subphthalocyanines as Efficient Photosensitizers with Nanomolar Photodynamic Activity against Cancer Cells” (J Med Chem, 2021).
pEC50: −log10 of the molar value. Activity calls are given as the source filed them. No cut-off for these calls is given here.

Experiments:
[1] = Phototoxicity against human SK-MEL-28 cells assessed as reduction in cell viability preincubated for 12 hrs followed by 15 mins of light irradiation and measured after 24 hrs by neutral red uptake assay; format: functional, cell-based; conditions: SK-MEL-28, light or radiation study
[2] = Dark toxicity against human SK-MEL-28 cells assessed as reduction in cell viability incubated for 24 hrs by neutral red uptake assay; format: cell-based; conditions: read-out: TC50
[3] = Selectivity index, ratio of TC50 for human SK-MEL-28 cells to EC50 for human SK-MEL-28 cells
[4] = Phototoxicity against human HeLa cells assessed as reduction in cell viability preincubated for 12 hrs followed by 15 mins of light irradiation and measured after 24 hrs by neutral red uptake assay; format: functional, cell-based; conditions: light or radiation study
[5] = Dark toxicity against human HeLa cells assessed as reduction in cell viability incubated for 24 hrs by neutral red uptake assay; format: cell-based; conditions: read-out: TC50
[6] = Selectivity index, ratio of TC50 for human HeLa cells to EC50 for human HeLa cells
[7] = Absorption maximum of the compound in EtOH; format: physicochemical
[8] = Absorption maximum of the compound in THF; format: physicochemical
[9] = Absorption property of the compound in THF assessed as extinction coefficient; format: physicochemical
[10] = Emission maximum of the compound in THF; format: physicochemical
[11] = Fluorescence property of compound in EtOH assessed as quantum yield; format: physicochemical
[12] = Fluorescence property of compound in THF assessed as quantum yield; format: physicochemical
[13] = Induction of singlet oxygen generation in EtOH assessed as singlet oxygen quantum yield; format: functional
[14] = Induction of singlet oxygen generation in THF assessed as singlet oxygen quantum yield; format: functional
[15] = Fluorescence property of compound in THF assessed as life time; format: physicochemical
[16] = n-Octanol/PBS partition coefficient, logP of the compound at pH 7.4 at 100 uM after 5 mins; format: physicochemical
[17] = Drug uptake in human SK-MEL-28 cells assessed per mg protein measured upto 12 hrs by spectrofluorometric method; format: ADME, cell-based; conditions: sk-mel-28, 12 h
[18] = Drug uptake in human HeLa cells assessed per mg protein measured upto 12 hrs by spectrofluorometric method; format: ADME, cell-based
[19] = Drug localization in adiposome of human SK-MEL-28 cells at 1 uM after 12 hrs by confocal microscopy analysis; format: ADME, subcellular; conditions: sk-mel-28, 12 h
[20] = Drug localization in adiposome of human HeLa cells at 1 uM after 12 hrs by confocal microscopy analysis; format: ADME, subcellular
SK-MEL-28 = experiment: Induction of apoptosis in human SK-MEL-28 cells at EC50 concentration preincubated for 12 hrs followed by 15 mins light irradiation and measured every 15 mins for 48 hrs by real time-glo Annexin V assay; format: functional, cell-based; conditions: time 3615.0 min
HeLa [21] = experiment: Potency index, ratio of temo-porfin EC50 to test compound EC50 for phototoxicity against human HeLa cells; format: functional
HeLa [22] = experiment: Potency index, ratio of S3AlOHPc EC50 to test compound EC50 for phototoxicity against human HeLa cells; format: functional
HeLa [23] = experiment: Potency index, ratio of PpXI EC50 to test compound EC50 for phototoxicity against human HeLa cells; format: functional
[24] = Drug localization in endo-lysosome of human SK-MEL-28 cells at 1 uM after 12 hrs by confocal microscopy analysis; format: ADME, subcellular; conditions: sk-mel-28, 12 h
[25] = Drug localization in endo-lysosome of human HeLa cells at 1 uM after 12 hrs by confocal microscopy analysis; format: ADME, subcellular
[26] = Absorption maximum of the compound in MeOH; format: physicochemical
[27] = Fluorescence property of compound in MeOH assessed as quantum yield; format: physicochemical
[28] = Induction of singlet oxygen generation in MeOH assessed as singlet oxygen quantum yield; format: functional
[29] = Fluorescence property of compound in MeOH assessed as life time; format: physicochemical
[30] = Fluorescence property of compound in acetone assessed as quantum yield; format: physicochemical

Row | Activity [7] [nm] | Activity [8] [nm] | Activity [9] [M⁻¹ cm⁻¹] | Activity [10] [nm] | Activity [11] | Activity [12] | Activity [15] [nanoseconds] | logD at 5 min, 100 µM [16] | Drug uptake [17] [nmol/mg] | Drug uptake [18] [nmol/mg] | Drug uptake [19] | Drug uptake [20] | SMILES | pEC50 [1] | CC50 at 24 h [2] [µM] | Selectivity Index [3] | pEC50 [4] | CC50 at 24 h [5] [µM] | Selectivity Index [6] | Activity [13] | Activity [14] | also measured
1 | 567 | 568 | 27790 | 578 | 0.09 | 0.09 |  |  |  |  |  |  | COC(=O)[C@H](Cc1ccc(O[B-]23n4c5c6c(F)c(F)c(F)c(F)c6c4N=c4c6c(F)c(F)c(F)c(F)c6c(n42)=NC2=[N+]3C(=N5)c3c(F)c(F)c(F)c(F)c32)cc1)NC(=O)OC(C)(C)C (some centres not stated) | 4.18 | > 100 | >1.51 | 4.19 | 65.7 | 1.03 | 0.19 | 0.19 | 
2 | 569 | 572 | 65160 | 581 | 0.03 | 0.03 | 0.3 |  |  |  |  |  | Cl[B-]12n3c4c5ccc(I)cc5c3N=c3c5ccc(I)cc5c(n31)=NC1=[N+]2C(=N4)c2ccc(I)cc21 (configuration not stated) |  |  |  |  |  |  | 0.77 | 0.7 | 
3 | 569 | 568 | 37460 | 578 | 0.01 | 0.01 | 0.34 | 1.79 |  |  |  |  | COC(=O)[C@@H](N)Cc1ccc(O[B-]23n4c5c6ccc(I)cc6c4N=c4c6ccc(I)cc6c(n42)=NC2=[N+]3C(=N5)c3ccc(I)cc32)cc1 (some centres not stated) | < 4.00 | > 100 |  | < 4.00 | > 100 |  | 0.29 | 0.49 | 
4 | 582 | 581 | 97450 | 596 | 0.2 | 0.19 | 1.69 | 2.63 | 0.033 | 0.121 | Active | Active | CCSc1ccc2c(c1)C1=Nc3c4ccc(SCC)cc4c4n3[B-]3(Oc5ccc(C[C@H](NC(=O)OC(C)(C)C)C(=O)OC)cc5)n5c(c6cc(SCC)ccc6c5=N4)=NC2=[N+]13 (some centres not stated) | 5.32 | > 100 | >21 | 5.35 | > 100 | >22 | 0.7 | 0.64 | Activity (SK-MEL-28): Active
5 | 583 | 578 | 92080 | 594 | 0.2 | 0.21 | 1.77 | 1.92 | 2.66 | 9.69 |  |  | CCSc1ccc2c(c1)C1=Nc3c4ccc(SCC)cc4c4n3[B-]3(OCc5ccc6c(c5)OCCOCCOCCOCCOCCO6)n5c(c6cc(SCC)ccc6c5=N4)=NC2=[N+]13 (configuration not stated) | 8.64 | 14.5 | 6300 | 8.36 | 5.25 | 1193 | 0.72 | 0.57 | Ratio EC50 (HeLa [21]): 10; Ratio EC50 (HeLa [22]): 470; Ratio EC50 (HeLa [23]): 182; Drug uptake [24]: Active; Drug uptake [25]: Active; Activity (SK-MEL-28): Active
6 |  |  |  | 587 |  |  |  |  |  |  |  |  | CC1(C)CCC(C)(C)c2cc3c(cc21)C1=Nc2c4cc5c(cc4c4n2[B-]2(Cl)n6c(c7cc8c(cc7c6=N4)C(C)(C)CCC8(C)C)=NC3=[N+]12)C(C)(C)CCC5(C)C (configuration not stated) |  |  |  |  |  |  |  |  | Activity [26]: 575 nm; Activity [27]: 0.18; Activity [28]: 0.65; Activity [29]: 2.04 nanoseconds
7 | 568 | 569 | 106120 | 577 | 0.03 | 0.03 | 0.3 | 2.22 |  |  | Active | Active | COC(=O)[C@H](Cc1ccc(O[B@@-]23n4c5c6ccc(I)cc6c4N=c4c6ccc(I)cc6c(n42)=NC2=[N+]3C(=N5)c3ccc(I)cc32)cc1)NC(=O)OC(C)(C)C | 4.93 | > 50 | >4 | 4.92 | > 50 | >4 | 0.86 | 0.64 | 
8 | 569 | 568 | 80750 | 578 | 0.022 | 0.022 | 0.35 |  | 0.005 | 0.33 | Active | Active | Ic1ccc2c(c1)C1=[N+]3C2=Nc2c4ccc(I)cc4c4n2[B@-]3(OCc2ccc3c(c2)OCCOCCOCCOCCOCCO3)n2c(c3cc(I)ccc3c2=N4)=N1 | 7.42 | 71.8 | 1891 | 7.18 | 23.5 | 356 | 0.59 | 0.57 | Activity (SK-MEL-28): Active
9 |  | 563 |  |  |  |  |  |  |  |  |  |  | c1ccc(O[B-]23n4c5c6ccccc6c4N=c4c6ccccc6c(n42)=NC2=[N+]3C(=N5)c3ccccc32)cc1 (configuration not stated) |  |  |  |  |  |  |  |  | Activity [30]: 0.18
10 | 583 | 579 | 66510 | 594 | 0.16 | 0.17 | 1.71 | 1.93 | 0.367 | 0.622 | Active | Active | CCSc1ccc2c(c1)C1=Nc3c4ccc(SCC)cc4c4n3[B@-]3(Oc5ccc(C[C@H](N)C(=O)OC)cc5)n5c(c6cc(SCC)ccc6c5=N4)=NC2=[N+]13 | 6.66 | > 100 | >455 | 6.92 | 68.8 | 573 | 0.5 | 0.49 | Activity (SK-MEL-28): Active
11 | 567 | 568 | 81000 | 579 | 0.014 | 0.014 |  |  |  |  |  |  | Fc1c(F)c(F)c2c(c1F)C1=Nc3c4c(F)c(F)c(F)c(F)c4c4n3[B-]3(OCc5ccc6c(c5)OCCOCCOCCOCCOCCO6)n5c(c6c(F)c(F)c(F)c(F)c6c5=N4)=NC2=[N+]13 (configuration not stated) | 4.79 | 18.9 | 1.16 | 5.19 | 6.78 | 1.06 | 0.056 | 0.086 | 
